What was measured:
HvPat2 (HvPat2-SII) [1] = biological target: T1, HvPat2 (HvPat2-SII) (Haloferax volcanii, UniProt D4GSS9); test: anti-acetyllysine immunoblot of in vitro acetylation of His-HvGlpK; type: biochemical; details: acetyl donor 0.2 mM; 6 uM enzyme; co-substrate HvGlpK 2 uM; 50 mM HEPES pH 7.5, 2 M NaCl, 1 mM DTT, 37 C, 3 h
T1 construct: gene pat2; full-length single GNAT domain, C-terminal StrepII tag kept; expressed in and purified from H. volcanii H26 delta-pat2; 196 residues with tag, 21,636 Da, monomer
T1 sequence (D4GSS9 entry or part of it): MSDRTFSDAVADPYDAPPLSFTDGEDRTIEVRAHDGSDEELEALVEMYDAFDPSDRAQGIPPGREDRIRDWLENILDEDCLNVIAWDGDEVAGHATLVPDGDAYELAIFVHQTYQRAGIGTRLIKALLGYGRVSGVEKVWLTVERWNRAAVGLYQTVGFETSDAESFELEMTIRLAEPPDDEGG

HvPat2 (HvPat2-SII) [2] = biological target: T2, HvPat2 (HvPat2-SII) (Haloferax volcanii, UniProt D4GSS9, N147A); test: as above; type: biochemical; details: acetyl donor 0.2 mM; 6 uM enzyme; co-substrate HvGlpK 2 uM; 50 mM HEPES pH 7.5, 2 M NaCl, 1 mM DTT, 37 C, 3 h
T2 construct: gene pat2; full-length single GNAT domain, C-terminal StrepII tag kept; expressed in and purified from H. volcanii H26 delta-pat2; 196 residues with tag, 21,636 Da, monomer
T2 sequence (D4GSS9 entry or part of it N147A): as the sequence (D4GSS9 entry or part of it) above, with N147A counted along it

CC(=O)SCCNC(=O)CCNC(=O)[C@H](O)C(C)(C)COP(=O)(O)OP(=O)(O)OC[C@H]1O[C@@H](n2cnc3c(N)ncnc32)[C@H](O)[C@@H]1OP(=O)(O)O [acetyl-CoA]
anti-acetyllysine immunoblot of in vitro acetylation of His-HvGlpK (HvPat2 (HvPat2-SII) [1]): when His-HvGlpKEc was incubated with both HvPat2 and acetyl-CoA, a strong signal for lysine acetylation | anti-acetyllysine immunoblot of in vitro acetylation of His-HvGlpK (HvPat2 (HvPat2-SII) [2]): The V110A variant showed minimal activity, while N147A exhibited reduced activity

From paper PMC12607858, “GNAT family Pat2 is required for long-term survival on glycerol and catalyzes lysine acetylation of glycerol kinase in hypersaline-adapted archaea” (mBio, 2025)
